“Also recorded” adds a separate entry of the source. Where two headings read alike, the source gives them in different places. Values belong to the molecule of their own block, whether it stands above or below them.
Tests used:
[1] = tested on: hiPSC-CM (iCell Cardiomyocytes^2); assay: miRNA in hiPSC-CM culture media by RT-qPCR at 24, 48 and 72 h post-treatment; conditions: for hsa-miR-133b in culture media, in words: 24, 48, 72 h, arsenic trioxide 0.48 μM, milrinone 3 μM, vincristine 0.3 μM, erlotinib 7.7 μM;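 for all read-outs here: medium RNA quantified by RT-qPCR, CT-values normalized to housekeeping miRNAs, compared against DMSO control, doses chosen from the MEC for CI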
Method: To extract total RNA from the culture media, hiPSC-CM were plated on 24-well plates by seeding 275,000 cells per mL per well. hiPSC-CM were maintained for 7 days in 200 µL of iCell^2 Maintenance Medium (iCell^2 MM; FCDI) for the 48-well ePlate and in 1 mL for 24-well plate, before drug treatment. Culture media change was performed every 2 days.
Stock solutions were diluted 1:1000 in iCell^2 MM before treatment and equilibrated at 37°C. As vehicle control, DMSO 0.1% was added to the media. Drug treatments on biological replicates (n = 3) were refreshed daily, and culture media was collected for further miRNA analysis. After 72 h, cell pellets were collected and stored at −80°C until total RNA extraction.
hiPSC-CM culture media was collected daily from 24-well plates, and centrifuged (+4°C, 11,000 rpm) for 5 min to remove cellular debris/cells. Total RNA was extracted from 300 µL of supernatant by Trizol/Chloroform phase separation and purification of total RNA by miRNeasy 96 Kit (Qiagen, Hilden, Germany). The spike-in control cel-miR-39 (Qiagen, Hilden, Germany) was used to check the quality of samples and PCR efficiency. DNase treatment (RNase-Free DNase Set (Qiagen, Hilden, Germany)) was applied according to the manufacturer’s instructions. After the RNA extraction, the same RT-qPCR protocol as for hiPSC-CM lysate was followed. Multiple unpaired t-tests were performed to compare delta CT-values (CT-values normalized to the housekeeping miRNAs) of the treatment groups to the DMSO control.
Analysis of miRNA in the culture media of hiPSC-CM treated with structural cardiotoxicants was performed at 24-, 48- and 72-hour post-treatment. […] The treatment concentrations were selected based on the MEC for CI to ensure that the preliminary evidence of cardiotoxicity in hiPSC-CMs could potentially lead to miRNA release in the culture media.

[2] = ref extensive literature search, cited from earlier work
[3] = tested on: hiPSC-CM (iCell Cardiomyocytes^2); assay: Intracellular miRNA expression by RT-qPCR in hiPSC-CM pellets after 72-hour treatment; conditions: for fold induction at 0.0003 µM / fold induction at 0.003 µM / fold induction at 0.03 µM / fold induction at 0.3 µM: Homo sapiens
In short: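 After 72-hour treatment and RTCA CardioECR assessment, total RNA from hiPSC-CM pellets was reverse transcribed, pre-amplified and quantified by TaqMan RT-qPCR against a 17-miRNA panel. Triplicates were pooled, so no statistical analysis was performed.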

[4] = tested on: hiPSC-CM (iCell Cardiomyocytes^2); assay: RTCA CardioECR assessment (impedance and electrophysiology parameters); conditions: for RTCA, MEC (CI): change ≥20%, Table 2
In short: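 iCell^2 cardiomyocytes on fibronectin-coated ePlates monitored continuously by impedance for cell index, beating rate and amplitude. Field potential duration and spike amplitude were recorded from day 4–6 after monolayer formation. Data were double-normalized to DMSO control and baseline, with variability given as SD.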

[5] = doxorubicin 0.1 μM, vinblastine 0.3 μM
[6] = 72 h, read-out: hsa-miR-7-5p fold change
[7] = 72 h, read-out: hsa-miR-29a-5p fold change
[8] = 72 h, read-out: hsa-miR-96-5p fold change
[9] = 72 h, read-out: hsa-miR-126-3p fold change
[10] = 72 h, read-out: hsa-miR-133b fold change
[11] = 72 h, read-out: hsa-miR-146b-5p fold change
[12] = 72 h, read-out: hsa-miR-182-5p fold change
[13] = 72 h, read-out: hsa-miR-185-3p fold change
[14] = 72 h, read-out: hsa-miR-187-3p fold change
[15] = 72 h, read-out: hsa-miR-208b-3p fold change
[16] = 72 h, read-out: hsa-miR-365a-5p fold change

- hsa-miR-126-3p fold change, culture media ([1]; 0.3 µM, 24h): 0.4
- hsa-miR-208b-3p fold change, culture media ([1]; 0.3 µM, 24h): 0.9
- hsa-miR-[…] change, culture media ([1]; 0.3 µM, 24h): 1.6
- hsa-miR-208b-3p fold change, culture media ([1]; 0.3 µM, 48h): 1.3
- hsa-miR-[…] change, culture media ([1]; 0.3 µM, 48h): 1.4
- hsa-miR-7-5p fold change, culture media ([1]; 0.3 µM, 72 h): 0.5
- hsa-miR-133b fold change, culture media ([1]; 0.3 µM, 72 h): 2.4
- hsa-miR-187-3p fold change, culture media ([1]; 0.3 µM, 72 h): 16.0
- hsa-miR-208b-3p fold change, culture media ([1]; 0.3 µM, 72 h): 2.3
- hsa-miR-[…] change, culture media ([1]; 0.3 µM, 72 h): 0.3
- intracellular miRNA upregulation in hiPSC-CM, in words [3]: smallest fold change
- miRNAs hiPSC-CM pellet, MEC overall [3]: 0.0003 µM
- miRNAs upregulated at the MEC overall (hiPSC-CM pellet) [3]: miR-126-3p
- hsa-miR-7-5p fold change, intracellular ([3]; 0.3 µM, 72 h): 1.0
- hsa-miR-29a-5p fold change, intracellular ([3]; 0.3 µM, 72 h): 1.0
- hsa-miR-96-5p fold change, intracellular ([3]; 0.3 µM, 72 h): 0.8
- hsa-miR-126-3p fold change, intracellular ([3]; 0.3 µM, 72 h): 1.4
- hsa-miR-133b fold change, intracellular ([3]; 0.3 µM, 72 h): 0.3
- hsa-miR-146b-5p fold change, intracellular ([3]; 0.3 µM, 72 h): 0.3
- hsa-miR-182-5p fold change, intracellular ([3]; 0.3 µM, 72 h): 0.4
- hsa-miR-185-3p fold change, intracellular ([3]; 0.3 µM, 72 h): 1.1
- hsa-miR-187-3p fold change, intracellular ([3]; 0.3 µM, 72 h): 0.7
- hsa-miR-208b-3p fold change, intracellular ([3]; 0.3 µM, 72 h): 2.2
- intracellular miRNA upregulation in hiPSC-CM, in words ([3]; human, 72 h): intracellular miR-208-3p was upregulated
- Cell index (CI) MEC ([4]; hiPSC-CM, 72-hour treatment, lowest concentration causing at least 20% change from baseline): 0.003 µM
- RTCA, MEC (CI) ([4]; hiPSC-CM): 0.003 µM (CI)
- Cell Index MEC ([4]; human, 72 h): 0.003 µM
- Contractility Amplitude MEC ([4]; human, 72 h): 0.003 µM
- Spike Amplitude (SA) MEC ([4]; human, 72 h): 0.003 µM
SMILES: CC[C@]1(O)C[C@H]2CN(CCc3c([nH]c4ccccc34)[C@@](C(=O)OC)(c3cc4c(cc3OC)N(C=O)[C@H]3[C@@](O)(C(=O)OC)[C@H](OC(C)=O)[C@]5(CC)C=CCN6CC[C@]43[C@@H]65)C2)C1 [Vincristine]
- hsa-miR-133b in culture media, in words [1, 5]: increase that was not statistically significant
- Cmax total ([2]; Supplementary Table 1): 50 nM
- Cmax total ([2]; Table 1): 50 nM
- fold induction at 0.0003 µM [3, 6]: 1
- fold induction at 0.003 µM [3, 6]: 1.1
- fold induction at 0.03 µM [3, 6]: 0.9
- fold induction at 0.3 µM [3, 6]: 1
- fold induction at 0.0003 µM [3, 7]: 0.4
- fold induction at 0.003 µM [3, 7]: 0.7
- fold induction at 0.03 µM [3, 7]: 1
- fold induction at 0.3 µM [3, 7]: 1
- fold induction at 0.0003 µM [3, 8]: 0.3
- fold induction at 0.003 µM [3, 8]: 0.6
- fold induction at 0.03 µM [3, 8]: 0.3
- fold induction at 0.3 µM [3, 8]: 0.8
- fold induction at 0.0003 µM [3, 9]: 3.2
- fold induction at 0.003 µM [3, 9]: 1.9
- fold induction at 0.03 µM [3, 9]: 1.3
- fold induction at 0.3 µM [3, 9]: 1.4
- fold induction at 0.0003 µM [3, 10]: 0.3
- fold induction at 0.003 µM [3, 10]: 0.2
- fold induction at 0.03 µM [3, 10]: 0.4
- fold induction at 0.3 µM [3, 10]: 0.3
- fold induction at 0.0003 µM [3, 11]: 1.2
- fold induction at 0.003 µM [3, 11]: 0.7
- fold induction at 0.03 µM [3, 11]: 0.4
- fold induction at 0.3 µM [3, 11]: 0.3
- fold induction at 0.0003 µM [3, 12]: 0.4
- fold induction at 0.003 µM [3, 12]: 0.5
- fold induction at 0.3 µM [3, 12]: 0.4
- fold induction at 0.0003 µM [3, 13]: 1.4
- fold induction at 0.003 µM [3, 13]: 2
- fold induction at 0.03 µM [3, 13]: 1
- fold induction at 0.3 µM [3, 13]: 1.1
- fold induction at 0.0003 µM [3, 14]: 1.3
- fold induction at 0.003 µM [3, 14]: 1.9
- fold induction at 0.03 µM [3, 14]: 1.4
- fold induction at 0.3 µM [3, 14]: 0.7
- fold induction at 0.0003 µM [3, 15]: 0.8
- fold induction at 0.003 µM [3, 15]: 1.3
- fold induction at 0.03 µM [3, 15]: 1.6
- fold induction at 0.3 µM [3, 15]: 2.2
- fold induction at 0.0003 µM [3, 16]: 0.6
- fold induction at 0.003 µM [3, 16]: 1.6
- fold induction at 0.03 µM [3, 16]: 1

- miRNAs hiPSC-CM pellet, MEC overall [3]: 0.0003 µM
- miRNAs upregulated at the MEC overall (hiPSC-CM pellet) [3]: miR-126-3p, miR-133b, miR-185-3p
- RTCA, MEC (CI) ([4]; hiPSC-CM): 0.3 µM
- Beating Rate MEC ([4]; human, 72 h): 0.003 µM
- Beating rate (BR) MEC ([4]; human, 72 h): 0.003 µM
- Contractility Amplitude MEC ([4]; human, 72 h): 0.0003 µM
- RTCA, MEC (BR) ([4]; human, 72 h): 0.003 µM
- Spike Amplitude (SA) MEC ([4]; human, 72 h): 0.0003 µM
SMILES: CC[C@]1(O)C[C@@H]2CN(CCc3c([nH]c4ccccc34)[C@@](C(=O)OC)(c3cc4c(cc3OC)N(C)[C@H]3[C@@](O)(C(=O)OC)[C@H](OC(C)=O)[C@]5(CC)C=CCN6CC[C@]43[C@@H]65)C2)C1 [Vinblastine]
- hsa-miR-133b in culture media, in words [1, 5]: upregulation was detected only after 72 h of treatment; also recorded: significant upregulation was observed only after 72-hour treatment
- hsa-miR-187-3p in culture media, in words [1, 5]: detected in the culture media only following 72-hour exposure
- Cmax total ([2]; Supplementary Table 1): 35 nM
- Cmax total ([2]; Table 1): 35 nM

Source: paper PMC12332266 (Frontiers in Pharmacology, 2025)
